Values joined by “and” are separate entries in the source; they are usually repeats but may differ in a detail not shown here. Identical values can stand only once.
How the values were obtained:
Assay type in all cases: biochemical
HSA = target: T1, HSA (Homo sapiens, UniProt P0DUB6); experiment: Binding mode (distribution of hydrolysis products) by HPLC; conditions: for Hydrolysis product G2P: share of product G2P; for Hydrolysis product G3P: share of product G3P; for Hydrolysis product G4P: share of product G4P; for Hydrolysis product GP: share of product GP
T1 sequence (P0DUB6 16-511): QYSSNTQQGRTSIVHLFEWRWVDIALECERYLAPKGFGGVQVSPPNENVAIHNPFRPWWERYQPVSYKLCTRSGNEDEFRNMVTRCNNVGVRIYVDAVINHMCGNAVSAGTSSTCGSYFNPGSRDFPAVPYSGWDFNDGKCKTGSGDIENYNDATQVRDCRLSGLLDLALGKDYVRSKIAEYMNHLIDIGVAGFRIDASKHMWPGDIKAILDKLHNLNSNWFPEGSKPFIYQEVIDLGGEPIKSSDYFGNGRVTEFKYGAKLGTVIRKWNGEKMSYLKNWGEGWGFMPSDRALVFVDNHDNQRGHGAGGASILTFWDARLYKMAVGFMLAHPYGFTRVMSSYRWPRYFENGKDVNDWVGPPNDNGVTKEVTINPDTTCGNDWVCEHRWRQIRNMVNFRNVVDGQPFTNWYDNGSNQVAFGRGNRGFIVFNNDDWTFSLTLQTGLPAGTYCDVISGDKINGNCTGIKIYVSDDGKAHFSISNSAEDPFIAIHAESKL
Experimental: (§1) The binding mode of each substrate were measured with high-performance liquid chromatography (HPLC) as described above.

HPA [1] = target: T2, HPA (Homo sapiens, UniProt P04746); experiment: as above; conditions: for Hydrolysis product G2P: share of product G2P; for Hydrolysis product G3P: share of product G3P; for Hydrolysis product G4P: share of product G4P; for Hydrolysis product GP: share of product GP
T2 sequence (P04746 16-511): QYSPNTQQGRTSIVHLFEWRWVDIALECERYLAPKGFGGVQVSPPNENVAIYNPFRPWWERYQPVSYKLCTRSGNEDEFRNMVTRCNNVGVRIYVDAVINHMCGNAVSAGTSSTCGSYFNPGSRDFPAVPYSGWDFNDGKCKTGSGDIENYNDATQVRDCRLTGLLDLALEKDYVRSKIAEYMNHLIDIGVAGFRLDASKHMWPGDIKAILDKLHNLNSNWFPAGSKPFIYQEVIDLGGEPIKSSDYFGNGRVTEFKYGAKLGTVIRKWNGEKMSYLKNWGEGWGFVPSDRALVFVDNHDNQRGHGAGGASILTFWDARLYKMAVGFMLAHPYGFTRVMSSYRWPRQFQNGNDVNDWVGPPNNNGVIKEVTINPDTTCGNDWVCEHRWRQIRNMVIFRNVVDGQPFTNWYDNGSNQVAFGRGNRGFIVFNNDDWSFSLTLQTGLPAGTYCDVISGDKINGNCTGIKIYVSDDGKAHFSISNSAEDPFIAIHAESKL
Experimental: as §1

[2] = target: T3, human salivary α-amylase (HSA) (Homo sapiens, UniProt P0DUB6); experiment: Hydrolysis rate of substrates by α-amylase (relative to G5P); conditions: substrate 1.0 mM, pH 7, value of G5P taken as 1
T3 sequence (P0DUB6 16-511): T1 sequence (P0DUB6 16-511)
Experimental: (§2) The above-mentioned advantages can be shown by using the following oligosaccharides: [drawing 6] n = 2: BG4P n = 3: BG5P (the present invention) n = 4: BG6P n = 5: BG7P [drawing 7] n = 2: G4P n = 3: G5P (standard) n = 4: G6P n = 5: G7P [drawing 8] n = 2: BDG4P n = 3: BDG5P n = 4: BDG6P n = 5: BDG7P The hydrolysis rate is measured by using human pancreatic α-amylase (HPA) or human salivary α-amylase (HSA) for each substrate (1.0 mM) at pH 7, and evaluating by means of relative values by taking the value of G5P as 1.

[3] = target: T4, human pancreatic α-amylase (HPA) (Homo sapiens, UniProt P04746); experiment: as above; conditions: substrate 1.0 mM, pH 7, value of G5P taken as 1
T4 sequence (P04746 16-511): T2 sequence (P04746 16-511)
Experimental: as §2

HPA [4] = target: T2, HPA; experiment: Km determination (Lineweaver-Burk plot, products measured by HPLC); conditions: 50 mM BES/NaOH buffer pH 7.6, 37°C, 5 min
Experimental: The amounts of the products were measured with HPLC.

SMILES: O=[N+]([O-])c1ccc(O[C@H]2O[C@H](CO)[C@@H](O[C@H]3O[C@H](CO)[C@@H](O[C@H]4O[C@H](CO)[C@@H](O[C@H]5O[C@H](CO)[C@@H](O[C@H]6O[C@H](CO)[C@@H](O[C@H]7O[C@H](CO)[C@@H](O)[C@H](O)[C@H]7O)[C@H](O)[C@H]6O)[C@H](O)[C@H]5O)[C@H](O)[C@H]4O)[C@H](O)[C@H]3O)[C@H](O)[C@H]2O)cc1 [Substrate G6P]
- Hydrolysis product G2P (HSA): 40%
- Hydrolysis product G3P (HSA): 53%
- Hydrolysis product G4P (HSA): 0%
- Hydrolysis product GP (HSA): 7%
- Hydrolysis product G2P (HPA [1]): 22%
- Hydrolysis product G3P (HPA [1]): 76%
- Hydrolysis product G4P (HPA [1]): 0%
- Hydrolysis product GP (HPA [1]): 2%
- hydrolysis rate (relative value) [2]: 1.7
- hydrolysis rate (relative value) [3]: 1.7

SMILES: O=[N+]([O-])c1ccc(O[C@H]2O[C@H](CO)[C@@H](O[C@H]3O[C@H](CO)[C@@H](O[C@H]4O[C@H](CO)[C@@H](O[C@H]5O[C@H](CO)[C@@H](O[C@H]6O[C@H](CO)[C@@H](O[C@H]7O[C@H](CO)[C@@H](O[C@H]8O[C@@H]9COC(c%10ccccc%10)O[C@H]9[C@H](O)[C@H]8O)[C@H](O)[C@H]7O)[C@H](O)[C@H]6O)[C@H](O)[C@H]5O)[C@H](O)[C@H]4O)[C@H](O)[C@H]3O)[C@H](O)[C@H]2O)cc1 (some centres unmarked) [BDG7P]
- Hydrolysis product G2P (HSA): 55%
- Hydrolysis product G3P (HSA): 25%
- Hydrolysis product G4P (HSA): 15%
- Hydrolysis product GP (HSA): 5%
- Hydrolysis product G2P (HPA [1]): 48%
- Hydrolysis product G3P (HPA [1]): 22%
- Hydrolysis product G4P (HPA [1]): 13%
- Hydrolysis product GP (HPA [1]): 7%
- Km (HPA [4]): 86 µM and 88.1 µM
- hydrolysis rate (relative value) [2]: 1.0
- hydrolysis rate (relative value) [3]: 1.1

SMILES: O=[N+]([O-])c1ccc(O[C@H]2O[C@H](CO)[C@@H](O[C@H]3O[C@H](CO)[C@@H](O[C@H]4O[C@H](CO)[C@@H](O[C@H]5O[C@H](CO)[C@@H](O)[C@H](O)[C@H]5O)[C@H](O)[C@H]4O)[C@H](O)[C@H]3O)[C@H](O)[C@H]2O)cc1 [Substrate G4P]
- Hydrolysis product G2P (HSA): 74%
- Hydrolysis product G3P (HSA): 0%
- Hydrolysis product G4P (HSA): 0%
- Hydrolysis product GP (HSA): 26%
- Hydrolysis product G2P (HPA [1]): 55%
- Hydrolysis product G3P (HPA [1]): 0%
- Hydrolysis product G4P (HPA [1]): 0%
- Hydrolysis product GP (HPA [1]): 45%
- hydrolysis rate (relative value) [2]: 0.75
- hydrolysis rate (relative value) [3]: 0.70

SMILES: O=[N+]([O-])c1ccc(O[C@H]2O[C@H](CO)[C@@H](O[C@H]3O[C@H](CO)[C@@H](O[C@H]4O[C@H](CO)[C@@H](O[C@H]5O[C@H](CO)[C@@H](O[C@H]6O[C@@H]7COC(c8ccccc8)O[C@H]7[C@H](O)[C@H]6O)[C@H](O)[C@H]5O)[C@H](O)[C@H]4O)[C@H](O)[C@H]3O)[C@H](O)[C@H]2O)cc1 (some centres unmarked) [BDG5P]
- Hydrolysis product (result in words) (HSA): Not hydrolyzed
- Hydrolysis product (result in words) (HPA [1]): Not hydrolyzed
- hydrolysis rate (relative value) [2]: 0
- hydrolysis rate (relative value) [3]: 0

SMILES: O=[N+]([O-])c1ccc(O[C@H]2O[C@H](CO)[C@@H](O[C@H]3O[C@H](CO)[C@@H](O[C@H]4O[C@H](CO)[C@@H](O[C@H]5O[C@H](CO)[C@@H](O[C@H]6O[C@H](CO)[C@@H](O[C@H]7O[C@@H]8COC(c9ccccc9)O[C@H]8[C@H](O)[C@H]7O)[C@H](O)[C@H]6O)[C@H](O)[C@H]5O)[C@H](O)[C@H]4O)[C@H](O)[C@H]3O)[C@H](O)[C@H]2O)cc1 (some centres unmarked) [BDG6P]
- Hydrolysis product G2P (HSA): 66%
- Hydrolysis product G3P (HSA): 10%
- Hydrolysis product G4P (HSA): 0%
- Hydrolysis product GP (HSA): 24%
- Hydrolysis product G2P (HPA [1]): 73%
- Hydrolysis product G3P (HPA [1]): 12%
- Hydrolysis product G4P (HPA [1]): 0%
- Hydrolysis product GP (HPA [1]): 15%
- hydrolysis rate (relative value) [2]: 0.5
- hydrolysis rate (relative value) [3]: 0.4

SMILES: O=[N+]([O-])c1ccc(O[C@H]2O[C@H](CO)[C@@H](O[C@H]3O[C@H](CO)[C@@H](O[C@H]4O[C@H](CO)[C@@H](O[C@H]5O[C@H](COCc6ccccc6)[C@@H](O)[C@H](O)[C@H]5O)[C@H](O)[C@H]4O)[C@H](O)[C@H]3O)[C@H](O)[C@H]2O)cc1 [BG4P]
- Hydrolysis product G2P (HSA): 10%
- Hydrolysis product G3P (HSA): 0%
- Hydrolysis product G4P (HSA): 0%
- Hydrolysis product GP (HSA): 90%
- Hydrolysis product G2P (HPA [1]): 8%
- Hydrolysis product G3P (HPA [1]): 0%
- Hydrolysis product G4P (HPA [1]): 0%
- Hydrolysis product GP (HPA [1]): 92%
- hydrolysis rate (relative value) [2]: 0.60
- hydrolysis rate (relative value) [3]: 0.55

SMILES: O=[N+]([O-])c1ccc(O[C@H]2O[C@H](CO)[C@@H](O[C@H]3O[C@H](CO)[C@@H](O[C@H]4O[C@H](CO)[C@@H](O[C@H]5O[C@H](CO)[C@@H](O[C@H]6O[C@H](CO)[C@@H](O[C@H]7O[C@H](CO)[C@@H](O[C@H]8O[C@H](CO)[C@@H](O)[C@H](O)[C@H]8O)[C@H](O)[C@H]7O)[C@H](O)[C@H]6O)[C@H](O)[C@H]5O)[C@H](O)[C@H]4O)[C@H](O)[C@H]3O)[C@H](O)[C@H]2O)cc1 [Substrate G7P]
- Hydrolysis product G2P (HSA): 8%
- Hydrolysis product G3P (HSA): 30%
- Hydrolysis product G4P (HSA): 60%
- Hydrolysis product GP (HSA): 2%
- Hydrolysis product G2P (HPA [1]): 14%
- Hydrolysis product G3P (HPA [1]): 30%
- Hydrolysis product G4P (HPA [1]): 55%
- Hydrolysis product GP (HPA [1]): 1%
- hydrolysis rate (relative value) [2]: 1.8
- hydrolysis rate (relative value) [3]: 1.8

SMILES: O=[N+]([O-])c1ccc(O[C@H]2O[C@H](CO)[C@@H](O[C@H]3O[C@H](CO)[C@@H](O[C@H]4O[C@H](CO)[C@@H](O[C@H]5O[C@H](CO)[C@@H](O[C@H]6O[C@H](CO)[C@@H](O[C@H]7O[C@H](COCc8ccccc8)[C@@H](O)[C@H](O)[C@H]7O)[C@H](O)[C@H]6O)[C@H](O)[C@H]5O)[C@H](O)[C@H]4O)[C@H](O)[C@H]3O)[C@H](O)[C@H]2O)cc1 [BG6P]
- Hydrolysis product G2P (HSA): 29%
- Hydrolysis product G3P (HSA): 68%
- Hydrolysis product G4P (HSA): 0%
- Hydrolysis product GP (HSA): 3%
- Hydrolysis product G2P (HPA [1]): 23%
- Hydrolysis product G3P (HPA [1]): 73%
- Hydrolysis product G4P (HPA [1]): 0%
- Hydrolysis product GP (HPA [1]): 4%
- hydrolysis rate (relative value) [2]: 1.4
- hydrolysis rate (relative value) [3]: 1.4

SMILES: O=[N+]([O-])c1ccc(O[C@H]2O[C@H](CO)[C@@H](O[C@H]3O[C@H](CO)[C@@H](O[C@H]4O[C@H](CO)[C@@H](O[C@H]5O[C@@H]6COC(c7ccccc7)O[C@H]6[C@H](O)[C@H]5O)[C@H](O)[C@H]4O)[C@H](O)[C@H]3O)[C@H](O)[C@H]2O)cc1 (some centres unmarked) [BDG4P]
- Hydrolysis product (result in words) (HSA): Not hydrolyzed
- Hydrolysis product (result in words) (HPA [1]): Not hydrolyzed
- hydrolysis rate (relative value) [2]: 0
- hydrolysis rate (relative value) [3]: 0

SMILES: O=[N+]([O-])c1ccc(O[C@H]2O[C@H](CO)[C@@H](O[C@H]3O[C@H](CO)[C@@H](O[C@H]4O[C@H](CO)[C@@H](O[C@H]5O[C@H](CO)[C@@H](O[C@H]6O[C@H](CO)[C@@H](O[C@H]7O[C@H](CO)[C@@H](O[C@H]8O[C@H](COCc9ccccc9)[C@@H](O)[C@H](O)[C@H]8O)[C@H](O)[C@H]7O)[C@H](O)[C@H]6O)[C@H](O)[C@H]5O)[C@H](O)[C@H]4O)[C@H](O)[C@H]3O)[C@H](O)[C@H]2O)cc1 [BG7P]
- Hydrolysis product G2P (HSA): 15%
- Hydrolysis product G3P (HSA): 38%
- Hydrolysis product G4P (HSA): 45%
- Hydrolysis product GP (HSA): 2%
- Hydrolysis product G2P (HPA [1]): 20%
- Hydrolysis product G3P (HPA [1]): 38%
- Hydrolysis product G4P (HPA [1]): 40%
- Hydrolysis product GP (HPA [1]): 2%
- hydrolysis rate (relative value) [2]: 1.5
- hydrolysis rate (relative value) [3]: 1.5

Reference: patent EP0252525B1, “Alpha-amylase assay using modified oligosaccharide and process for producing said modified oligosaccharide” (WAKO PURE CHEMICAL INDUSTRIES, LTD, priority 1986, dated 1988)
